One block for each molecule: values may come before it. Non-standard residues stand in square brackets, D forms with d. Residues, ends and D or L forms follow the SMILES beside them. *: point of attachment. ACC = NC(=O)Cc1cc(=O)oc2cc(N*)ccc12; AMC = Cc1cc(=O)oc2cc(N*)ccc12; Nle = CCCC[C@H](N)C(=O)O; CH2Cl = ClC*
Columns and labels:
βI Tryptase [1] = target: T1, βI Tryptase (Homo sapiens, UniProt Q15661); assay: Single substrate kinetic analysis, βI tryptase; type: biochemical; conditions: for Km: βI Tryptase, 30° C., pH 7.5
T1 construct: Secreted mature βI and βII tryptases were purified to homogeneity; made in house; host or cells: Pichia pastoris GS115
T1 sequence (Q15661 31-275): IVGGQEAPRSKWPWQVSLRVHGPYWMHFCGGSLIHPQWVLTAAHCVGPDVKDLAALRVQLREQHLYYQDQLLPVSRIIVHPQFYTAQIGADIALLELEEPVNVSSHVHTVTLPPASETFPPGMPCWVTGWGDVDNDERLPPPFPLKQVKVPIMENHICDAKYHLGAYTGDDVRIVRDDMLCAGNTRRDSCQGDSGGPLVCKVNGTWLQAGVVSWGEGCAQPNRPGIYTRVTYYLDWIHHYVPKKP
Procedure: (§1) Tryptase activity was monitored at 30° C. in assay buffer containing 100 mM HEPES pH 7.5 and 10% glycerol. Substrate stock solutions were prepared in DMSO. The final concentration of substrate ranged from 0.005-2 mM. The concentration of DMSO in the assay was less than 5%. The tryptase concentration was 5 nM. Hydrolysis of ACC substrates was monitored fluorometrically with an excitation wavelength of 380 nm and emission wavelength of 450 nm on a Fluoromax-2 spectrofluorimeter (JY Horiba).

βII Tryptase [2] = target: T2, βII Tryptase (Homo sapiens, UniProt Q15661, N132K); assay: Single substrate kinetic analysis, βII tryptase; type: biochemical; conditions: for Km: βII Tryptase, 30° C., pH 7.5
T2 construct: Secreted mature βI and βII tryptases were purified to homogeneity; made in house; host or cells: Pichia pastoris GS115
T2 sequence (Q15661 31-275 N132K): as the sequence (Q15661 31-275) above, with N102K counted along it
Procedure: as §1

[3] = Fluorescence properties of free and peptidyl-derivatized ACC and AMC; type: physicochemical; conditions: for λmax, em / λmax, ex: 25° C.; for RFU/nM1 / RFU/nM2: λex = 380 nm; for RFU/nM1: λem = 450 nm; for RFU/nM2: λem = 460 nm
Procedure: The fluorescence of free ACC and peptidyl-derivatized ACC was detected on a Spex fluorometer thermostated to 25° C. Excitation wavelengths of 300-410 nm, 5 nm intervals, were used with emission wavelengths of 410-500 nm, 5 nm intervals, to determine optimal excitation and emission parameters.

βII Tryptase [4] = target: T2, βII Tryptase; assay: Irreversible inhibitor kinetic analysis (progress curves), βII tryptase; type: biochemical; conditions: tryptase 1 nM, 30° C., 100 μM Ac-PRNK-ACC substrate
Procedure: (§2) Progress curves were obtained for tryptase (1 nM) inactivation by multiple concentrations of Ac-PRNK-cmk (50 nM to 10 μM). Activity was monitored at 30° C. in activity buffer with 100 μM Ac-PRNK-ACC substrate. The rate constant for loss of enzyme activity, kobs, was determined from a non-linear regression of the progress curve data. kobs varied linearly with inhibitor concentration. Therefore, kass, the rate constant for the inactivation of enzyme with inhibitor, was determined by linear regression analysis (Bieth, J. G. Methods in Enzymology 248: 59-84 (1995)). Several P1-basic-preferring proteases were monitored for inhibition by Ac-PRNK-cmk as follows: tryptase bI (50 nM), tryptase bII (50 nM), factor Xa (50 nM), tPA (50 nM), uPA (50 nM), thrombin (1 nM), and plasmin (5 nM) were incubated for 5 minutes with 0 μM, 10 μM, 100 μM Ac-PRNK-cmk. After incubation, residual activity was monitored as follows: Ac-PRNK-ACC was added to a final concentration of 5 μM to the samples containing tryptase βI and βII; Ac-GTAR-ACC (5 μM) was added to the factor Xa and tPA samples; Ac-QFAR-ACC (5 μM) was added to the uPA samples; Ac-nTPR-ACC (5 μM) was added to the thrombin samples; and Ac-KQWK-ACC (5 μM) was added to plasmin samples.
(§3) Progress curves were obtained for tryptase (1 nM) inactivation by multiple concentrations of Ac-PRNK-cmk (50 nM to 10 μM). […]

Plasmin = target: T3, Plasmin (Homo sapiens, UniProt P00747); assay: Protease inhibition by Ac-PRNK-cmk, residual activity; type: biochemical; conditions: 100 μM Ac-PRNK-cmk, 5 minutes incubation, enzyme 5 nM
T3 construct: Human thrombin, plasmin, and factor Xa were used as received; purchased Haematologic Technologies Inc. (Essex Jct., Vt.)
T3 sequence (P00747 581-810 limits assumed): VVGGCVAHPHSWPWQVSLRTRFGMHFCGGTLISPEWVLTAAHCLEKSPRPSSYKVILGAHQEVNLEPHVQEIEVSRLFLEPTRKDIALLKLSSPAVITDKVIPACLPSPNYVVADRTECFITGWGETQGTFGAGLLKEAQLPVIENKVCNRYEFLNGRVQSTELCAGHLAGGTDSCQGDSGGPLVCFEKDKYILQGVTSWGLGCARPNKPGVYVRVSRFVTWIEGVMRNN
T3 sequence (P00747 97-580 partner limits assumed): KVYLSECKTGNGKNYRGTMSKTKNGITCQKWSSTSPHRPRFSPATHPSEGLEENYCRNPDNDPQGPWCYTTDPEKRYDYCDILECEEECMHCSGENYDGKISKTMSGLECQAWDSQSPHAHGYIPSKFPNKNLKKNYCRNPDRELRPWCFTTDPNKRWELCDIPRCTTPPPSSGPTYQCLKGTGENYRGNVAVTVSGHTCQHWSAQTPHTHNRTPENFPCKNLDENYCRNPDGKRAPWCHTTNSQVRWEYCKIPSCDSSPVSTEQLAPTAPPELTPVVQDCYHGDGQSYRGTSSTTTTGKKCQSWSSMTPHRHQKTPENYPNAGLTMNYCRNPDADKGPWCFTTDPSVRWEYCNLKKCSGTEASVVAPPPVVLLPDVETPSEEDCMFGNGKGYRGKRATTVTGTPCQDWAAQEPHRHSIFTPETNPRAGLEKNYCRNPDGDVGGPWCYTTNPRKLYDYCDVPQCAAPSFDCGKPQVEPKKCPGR
Procedure: as §2
as §2, with “(Bieth” for “(Bieth, J. G. Methods in Enzymology 248: 59-84”, “bIl” for “bII”

Tryptase βI = target: T4, Tryptase βI (Homo sapiens, UniProt Q15661); assay: as above; type: biochemical; conditions: 10 μM Ac-PRNK-cmk, 5 minutes incubation, enzyme 50 nM
T4 construct: Secreted mature βI and βII tryptases were purified to homogeneity; made in house; host or cells: Pichia pastoris GS115
T4 sequence (Q15661 31-275): as the sequence (Q15661 31-275) above
Procedure: as §2
as §2, with “(Bieth” for “(Bieth, J. G. Methods in Enzymology 248: 59-84”, “bIl” for “bII”

Tryptase βII = target: T5, Tryptase βII (Homo sapiens, UniProt Q15661, N132K); assay: as above; type: biochemical; conditions: 10 μM Ac-PRNK-cmk, 5 minutes incubation, enzyme 50 nM
T5 construct: Secreted mature βI and βII tryptases were purified to homogeneity; made in house; host or cells: Pichia pastoris GS115
T5 sequence (Q15661 31-275 N132K): as the sequence (Q15661 31-275) above, with N102K counted along it
Procedure: as §2
as §2, with “(Bieth” for “(Bieth, J. G. Methods in Enzymology 248: 59-84”, “bIl” for “bII”

thrombin [5] = target: T6, thrombin (Homo sapiens, UniProt P00734); assay: as above; type: biochemical; conditions: 100 μM Ac-PRNK-cmk, 5 minutes incubation, enzyme 1 nM
T6 construct: Human thrombin, plasmin, and factor Xa were used as received; purchased Haematologic Technologies Inc. (Essex Jct., Vt.)
Procedure: as §2
as §2, with “(Bieth” for “(Bieth, J. G. Methods in Enzymology 248: 59-84”, “bIl” for “bII”

uPA = target: T7, uPA (Homo sapiens, UniProt P00749); assay: as above; type: biochemical; conditions: 100 μM Ac-PRNK-cmk, 5 minutes incubation, enzyme 50 nM
T7 construct: purchased American Diagnostica (Greenwich, Conn.) or Calbiochem (San Diego, Calif.)
Procedure: as §2
as §2, with “(Bieth” for “(Bieth, J. G. Methods in Enzymology 248: 59-84”, “bIl” for “bII”

tPA = target: T8, tPA (Homo sapiens, UniProt P00750); assay: as above; type: biochemical; conditions: 100 μM Ac-PRNK-cmk, 5 minutes incubation, enzyme 50 nM
T8 construct: purchased American Diagnostica (Greenwich, Conn.)
T8 sequence (P00750 36-562): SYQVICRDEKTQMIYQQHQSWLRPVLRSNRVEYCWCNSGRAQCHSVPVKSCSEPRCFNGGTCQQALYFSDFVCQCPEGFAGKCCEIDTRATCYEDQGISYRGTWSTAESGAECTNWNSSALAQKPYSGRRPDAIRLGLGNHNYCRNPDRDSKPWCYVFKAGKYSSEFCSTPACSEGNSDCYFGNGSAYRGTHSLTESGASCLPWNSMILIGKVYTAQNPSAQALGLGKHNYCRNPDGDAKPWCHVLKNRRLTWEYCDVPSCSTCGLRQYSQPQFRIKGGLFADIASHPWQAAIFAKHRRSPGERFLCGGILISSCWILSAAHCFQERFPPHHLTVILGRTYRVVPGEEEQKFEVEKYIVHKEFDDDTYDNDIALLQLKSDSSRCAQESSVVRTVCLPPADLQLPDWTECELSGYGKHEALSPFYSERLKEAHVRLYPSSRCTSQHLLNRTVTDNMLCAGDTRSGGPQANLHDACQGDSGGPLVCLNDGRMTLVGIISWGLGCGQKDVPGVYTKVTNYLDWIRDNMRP
Procedure: as §2
as §2, with “(Bieth” for “(Bieth, J. G. Methods in Enzymology 248: 59-84”, “bIl” for “bII”

βI Tryptase [6] = target: T1, βI Tryptase; assay: Irreversible inhibitor kinetic analysis (progress curves), βI tryptase; type: biochemical; conditions: tryptase 1 nM, 30° C., 100 μM Ac-PRNK-ACC substrate
Procedure: as §2, §3

Factor Xa = assay: Protease inhibition by Ac-PRNK-cmk, residual activity; type: biochemical, human; conditions: 100 μM Ac-PRNK-cmk, 5 minutes incubation, enzyme 50 nM
Procedure: as §2, §3

thrombin [7] = target: T6, thrombin; assay: Single substrate kinetic assay with thrombin (ACC vs AMC leaving group); type: biochemical; conditions: thrombin 5-20 nM
Procedure: (§4) Thrombin concentration ranged from 5-20 nM. The final concentration of substrate ranged from 0.005-2 mM, the concentration of DMSO in the assay was less than 5%. Hydrolysis of AMC and ACC substrates was monitored fluorometrically with an excitation wavelength of 380 nm and emission wavelength of 460 nm on a Fluoromax-2 spectrofluorometer. Cruzain (10 nM) was incubated with 600 μM of the Ac-Leu-Thr-Phe-Lys-ACC substrate. Aliquots were removed at various time points and applied to a C-18 reverse-phase HPLC column with a 10-40% gradient of 95:4.9:0.1 Acetonitrile:H2O:TFA. MALDI (PE Biosystems Voyager) mass spectrometry data was collected on the HPLC fractions.

cruzain = target: T9, cruzain (Trypanosoma cruzi, UniProt P25779); assay: Incubation of single substrate with cruzain and analysis of cleavage products (HPLC, MALDI); type: biochemical; conditions: cruzain 10 nM, 600 μM substrate; data not shown
T9 construct: made in house
T9 sequence (P25779 123-337): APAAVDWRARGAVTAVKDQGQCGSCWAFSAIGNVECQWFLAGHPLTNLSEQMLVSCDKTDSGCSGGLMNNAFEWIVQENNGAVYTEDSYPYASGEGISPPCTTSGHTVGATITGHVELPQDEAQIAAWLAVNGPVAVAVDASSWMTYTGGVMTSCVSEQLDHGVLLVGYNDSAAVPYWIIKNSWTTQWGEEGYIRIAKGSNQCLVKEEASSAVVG
Procedure: as §4

[8] = range stated over tryptase βI and βII

Molecule: 7-Nle-Thr-Pro-Lys-AMC [reference compound]
λmax, em [3]: 390 nm
λmax, ex [3]: 330 nm
RFU/nM1 [3]: 3.3 RFU/nM
RFU/nM2 [3]: 2.2 RFU/nM

Molecule: CC(=O)N1CCC[C@H]1C(=O)N[C@@H](C)C(=O)N[C@@H](CC(N)=O)C(=O)N[C@@H](CCCCN)C(=O)Nc1ccc2c(CC(N)=O)cc(=O)oc2c1 [Ac-PANK-ACC] (Ac-PANK-{ACC})
Km (βI Tryptase [1]): 111 ± 9.8 µM
Km (βII Tryptase [2]): 133 ± 15.6 µM

Molecule: CC(=O)N[C@@H](CC(C)C)C(=O)NCC(=O)N1CCC[C@H]1C(=O)N[C@@H](CCCCN)C(=O)Nc1ccc2c(C)cc(=O)oc2c1 [Ac-Leu-Gly-Pro-Lys-AMC] (Ac-LGPK-{AMC})
Km (thrombin [7]): 160 ± 25 µM
kcat (thrombin [7]): 2.3 ± 0.2 s⁻¹

Molecule: CCCC[C@H](NC(C)=O)C(=O)N[C@H](C(=O)N1CCC[C@H]1C(=O)N[C@@H](CCCCN)C(=O)Nc1ccc2c(C)cc(=O)oc2c1)[C@@H](C)O [Ac-Nle-Thr-Pro-Lys-AMC] (Ac-[Nle]TPK-{AMC})
Km (thrombin [7]): 115 ± 10 µM
kcat (thrombin [7]): 31.0 ± 0.9 s⁻¹

Molecule: Ac-Leu-Thr-Phe-Lys-ACC (Ac-LTFK-{ACC}; SMILES CC(=O)N[C@@H](CC(C)C)C(=O)N[C@H](C(=O)N[C@@H](Cc1ccccc1)C(=O)N[C@@H](CCCCN)C(=O)Nc1ccc2c(CC(N)=O)cc(=O)oc2c1)[C@@H](C)O)
cleavage products observed (cruzain): cleavage between Thr-Phe

More lines, main results first:

activity relative to Ac-PRNK-ACC substrate (βI Tryptase [1]; [8]): 70-90%
Km (βI Tryptase [1]): 16.5 ± 2.7 µM
activity relative to Ac-PRNK-ACC substrate (βII Tryptase [2]; [8]): 70-90%
Km (βII Tryptase [2]): 18.6 ± 2.6 µM
Molecule: CC(=O)N1CCC[C@H]1C(=O)N[C@@H](CCCNC(=N)N)C(=O)N[C@@H](CC(N)=O)C(=O)N[C@@H](CCCNC(=N)N)C(=O)Nc1ccc2c(CC(N)=O)cc(=O)oc2c1 [Ac-PRNR-ACC] (Ac-PRNR-{ACC})

λmax, em [3]: 400 nm
λmax, ex [3]: 325 nm
RFU/nM1 [3]: 6.4 RFU/nM
RFU/nM2 [3]: 4.6 RFU/nM
Molecule: 7-Nle-Thr-Pro-Lys-ACC

association rate constant, kass (βII Tryptase [4]): 5000 ± 200 M⁻¹ s⁻¹
Percent Inhibition (Plasmin): 63
Percent Inhibition (Tryptase βI): 95
Percent Inhibition (Tryptase βII): 95
Percent Inhibition (thrombin [5]): 0
Percent Inhibition (uPA): 34
Percent Inhibition (tPA): 0
association rate constant, kass (βI Tryptase [6]): 5000 ± 200 M⁻¹ s⁻¹
Molecule: Ac-PRNK-CH2Cl
Percent Inhibition (Factor Xa): 0

Km (βI Tryptase [1]): 14.7 ± 1.4 µM
Km (βII Tryptase [2]): 23.4 ± 2.3 µM
Molecule: CC(=O)N1CCC[C@H]1C(=O)N[C@@H](CCCNC(=N)N)C(=O)N[C@H](C(=O)N[C@@H](CCCCN)C(=O)Nc1ccc2c(CC(N)=O)cc(=O)oc2c1)[C@@H](C)O [Ac-PRTK-ACC] (Ac-PRTK-{ACC})

λmax, em [3]: 450 nm
λmax, ex [3]: 350 nm
fluorescence yield relative to the AMC coumarin ([3]; excitation 380 nm, emission 460 nm): approximately 2.8 fold
RFU/nM1 [3]: 5750 RFU/nM
RFU/nM2 [3]: 4390 RFU/nM
Molecule: NC(=O)Cc1cc(=O)oc2cc(N)ccc12 [7-Amino-4-Carbamoylmethyl-coumarin (ACC), 7-amino-4-carbamoylmethyl-coumarin]

Km (thrombin [7]): 125 ± 13 µM
Molecule: CCCC[C@H](NC(C)=O)C(=O)N[C@H](C(=O)N1CCC[C@H]1C(=O)N[C@@H](CCCCN)C(=O)Nc1ccc2c(CC(N)=O)cc(=O)oc2c1)[C@@H](C)O [Ac-Nle Thr-Pro-Lys--ACC] (Ac-[Nle]TPK-{ACC})

Km (thrombin [7]): 195 ± 30 µM
Molecule: CC(=O)N[C@@H](CC(C)C)C(=O)NCC(=O)N1CCC[C@H]1C(=O)N[C@@H](CCCCN)C(=O)Nc1ccc2c(CC(N)=O)cc(=O)oc2c1 [Ac-Leu-Gly-Pro-Lys--ACC] (Ac-LGPK-{ACC})

Km (βI Tryptase [1]): 8.9 ± 0.9 µM
Km (βII Tryptase [2]): 14.5 ± 1.9 µM
Molecule: CC(=O)N1CCC[C@H]1C(=O)N[C@@H](CCCNC(=N)N)C(=O)N[C@@H](CC(N)=O)C(=O)N[C@@H](CCCCN)C(=O)Nc1ccc2c(CC(N)=O)cc(=O)oc2c1 [Ac-PRNK-ACC] (Ac-PRNK-{ACC})
